Structures are written as SMILES.

The target of experiment [1] is cloned human P2Y1 receptors (Homo sapiens (Human), UniProt P47900). The experiment can be described thus: Binding Assay B: Scintillation Proximity Assay (SPA) for P2Y1 binding. The note with it: SPA, [33P] 2MeS-ADP displacement; read-out: P2Y1 Ki (nM) using binding assay B. The method, then:
A SPA membrane binding assay was used to identify inhibitors of [^33P] […] Binding reactions were performed in 384-well OptiPlates (PerkinElmer Life Sciences, Cat #6007299) in a volume of 50 μL containing ˜15 fmol of P2Y1 receptor (1.7 μg of total protein), 0.3 nM [^33P] […] Reactions were allowed to proceed to completion at room temperature for 1 hour followed by centrifugation of the plate for 5 min. About 40 μL of the aqueous solution was aspirated. Plates were sealed and the [^33P]

For experiment [2], the system named is human platelet rich plasma (PRP). In words: ADP induced platelet aggregation assay. Particulars: Homo sapiens, Platelet, read-out: PA IC50 (μM) @ 10 μM ADP, platelet aggregation induced by 10 μM ADP, human PRP.

Chain of cloned human P2Y1 receptors (P47900 whole entry): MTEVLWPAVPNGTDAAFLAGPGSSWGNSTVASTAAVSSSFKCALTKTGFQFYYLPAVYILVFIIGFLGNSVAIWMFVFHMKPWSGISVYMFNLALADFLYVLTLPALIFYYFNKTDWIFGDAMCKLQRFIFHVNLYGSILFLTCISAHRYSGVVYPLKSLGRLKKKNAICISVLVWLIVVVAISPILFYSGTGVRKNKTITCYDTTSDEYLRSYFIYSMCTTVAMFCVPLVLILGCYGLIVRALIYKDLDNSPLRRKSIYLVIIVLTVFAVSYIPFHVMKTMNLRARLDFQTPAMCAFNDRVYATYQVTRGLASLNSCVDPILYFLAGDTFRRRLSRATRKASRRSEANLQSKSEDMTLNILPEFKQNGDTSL

Regarding `CC(C)(C)CN1CCC2(CC1)CN(c1ccccc1NC(=O)Nc1nc3ccc(F)cc3s1)c1c(O)ccc(C(F)(F)F)c12` [Example 3, 1-(6-Fluorobenzo[d]thiazol-2-yl)-3-(2-(7-hydroxy-1′-neopentyl-4-(trifluoromethyl)spiro[indoline-3,4′-piperidine]-1-yl)phenyl)urea], in experiment [1], the Ki came to 8.9 nM. Moreover, the IC50 in experiment [2] stood at 0.1 µM.

For `CC(C)CN1CCC2(CC1)CN(c1ccccc1NC(=O)Nc1nc3ccc(F)cc3s1)c1c(O)ccc(Cl)c12` [Example 4, 1-(2-(4-Chloro-7-hydroxy-1′-isobutylspiro[indoline-3,4′-piperidine]-1-yl)phenyl)-3-(6-fluorobenzo[d]thiazol-2-yl)urea], the Ki in experiment [1] was 9.9 nM. Moreover, in experiment [2], the IC50 is 0.4 µM.

As for `CC(C)(C)CN1CCC2(CC1)CN(c1ccccc1NC(=O)Nc1ccc(C(C)(C)C)cc1)c1c(O)cccc12` [Example 5, 1-(4-tert-Butylphenyl)-3-(2-(7-hydroxy-1′-neopentylspiro[indoline-3,4′-piperidine]-1-yl)phenyl)urea], the inhibition constant (Ki) in experiment [1] amounted to 8.3 nM. Moreover, the IC50 in experiment [2] turned out to be 0.4 µM.

Take `CC(C)(C)CN1CCC2(CC1)CN(c1ccccc1NC(=O)Nc1ccc(OC(F)(F)F)cc1)c1c(O)ccc(F)c12` [Example 6, 1-(2-(4-Fluoro-7-hydroxy-1′-neopentylspiro[indoline-3,4′-piperidine]-1-yl)phenyl)-3-(4-(trifluoromethoxy)phenyl)urea]: in experiment [1], the inhibition constant Ki turned out to be 4.4 nM. For the same molecule, the IC50 in experiment [2] is 0.9 µM.

For the molecule `CC(C)(C)CN1CCC2(CC1)CN(c1ccccc1NC(=O)Nc1ccc(C(C)(C)C)cc1)c1c(O)ccc(F)c12` [Example 7, 1-(4-tert-Butylphenyl)-3-(2-(4-fluoro-7-hydroxy-1′-neopentylspiro[indoline-3,4′-piperidine]-1-yl)phenyl)urea], the Ki in experiment [1] was determined as 4 nM. Further, in experiment [2], the concentration for half-maximal inhibition (IC50) amounted to 0.6 µM.

As to `CC(C)(C)CN1CCC2(CC1)CN(c1ccccc1NC(=O)Nc1ccc(OC(F)(F)F)cc1)c1c(O)ccc(C#N)c12` [Example 8, 1-(2-(4-Cyano-7-hydroxy-1′-neopentylspiro[indoline-3,4′-piperidine]-1-yl)phenyl)-3-(4-(trifluoromethoxy)phenyl)urea], the Ki in experiment [1] came to 5.7 nM. Moreover, the IC50 in experiment [2] is 1.1 µM.

`CC(C)(C)CN1CCC2(CC1)CN(c1ccccc1NC(=O)Nc1ccc(C(C)(C)C)cc1)c1c(O)cc(F)c(F)c12` [Example 9, 1-(4-tert-Butylphenyl)-3-(2-(4,5-difluoro-7-hydroxy-1′-neopentylspiro [indoline-3,4′-piperidine]-1-yl)phenyl)urea]: the Ki in experiment [1] came to 10.5 nM. Further, the concentration for half-maximal inhibition (IC50) in experiment [2] is 0.9 µM.

As to `CC(C)(C)CN1CCC2(CC1)CN(c1ccccc1NC(=O)Nc1ccc(OC(F)(F)F)cc1)c1c(O)ccc(C(F)(F)F)c12` [Example 10, 1-(2-(7-Hydroxy-1′-neopentyl-4-(trifluoromethyl)spiro[indoline-3,4′-piperidine]-1-yl)phenyl)-3-(4-(trifluoromethoxy)phenyl)urea], in experiment [1], the Ki was 4.5 nM. The IC50 in experiment [2] was determined as 0.1 µM.

As to `CC(C)(C)CN1CCC2(CC1)CN(c1ccccc1NC(=O)Nc1ccc(C(C)(C)C)cc1)c1c(O)ccc(C(F)(F)F)c12` [Example 11, 1-(4-tert-Butylphenyl)-3-(2-(7-hydroxy-1′-neopentyl-4-(trifluoromethyl)spiro[indoline-3,4′-piperidine]-1-yl)phenyl)urea], the Ki in experiment [1] worked out at 7.9 nM. The IC50 in experiment [2] amounted to 0.1 µM.

`CC(C)(C)CN1CCC2(CC1)CN(c1ncccc1NC(=O)Nc1ccc(OC(F)(F)F)cc1)c1c(O)ccc(C(F)(F)F)c12` [Example 12, 1-(2-(7-Hydroxy-1′-neopentyl-4-(trifluoromethyl)spiro[indoline-3,4′-piperidine]-1-yl)pyridin-3-yl)-3-(4-(trifluoromethoxy)phenyl)urea]: the Ki in experiment [1] amounted to 5.6 nM. For the same molecule, the half-maximal inhibitory concentration (IC50) in experiment [2] is 1.4 µM.

A word on the Ki: it is a dissociation constant, usually derived from enzyme kinetics or from competition with a known ligand. For orientation: IC50 means the midpoint of a concentration-inhibition curve.

The values are drawn from patent US9428504B2, “7-hydroxy-spiropipiperidine indolinyl antagonists of P2Y1 receptor” (BRISTOL-MYERS SQUIBB COMPANY, priority 2012, dated 2016).
